Measured values reported in US20030148954A1, “Agents and methods for modulating activator protein-1-mediated cellular processes” (Wisconsin Alumni Research Foundation, priority 2001, published 2003).
“Also recorded” adds a separate entry of the source.

Experiments:
CBF1 = molecular target: T1, CBF1 (Homo sapiens, UniProt Q06330); experiment: Coimmunoprecipitation of CBF1 with NIC-1 from K562 cell lysates; format: binding; conditions: K562 cells, retroviral infection
T1 construct: endogenous in cells; host or cells: K562 cells retrovirally infected with NIC-1 expression vectors
T1 sequence (Q06330 whole entry): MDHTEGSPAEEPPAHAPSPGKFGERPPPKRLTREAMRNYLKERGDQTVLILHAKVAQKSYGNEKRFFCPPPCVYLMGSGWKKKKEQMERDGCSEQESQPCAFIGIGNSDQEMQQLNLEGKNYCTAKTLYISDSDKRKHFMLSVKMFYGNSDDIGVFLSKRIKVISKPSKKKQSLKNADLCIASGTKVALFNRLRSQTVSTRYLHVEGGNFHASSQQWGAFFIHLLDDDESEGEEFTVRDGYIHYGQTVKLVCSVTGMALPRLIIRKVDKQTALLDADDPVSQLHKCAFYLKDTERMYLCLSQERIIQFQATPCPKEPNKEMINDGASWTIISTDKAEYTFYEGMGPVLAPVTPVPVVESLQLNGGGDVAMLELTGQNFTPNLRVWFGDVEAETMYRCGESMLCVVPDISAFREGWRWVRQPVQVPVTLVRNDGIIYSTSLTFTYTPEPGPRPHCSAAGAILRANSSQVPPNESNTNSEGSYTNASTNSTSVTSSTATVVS
Description: Retroviral Infection—Modified 293 human embryonic kidney cells were grown in 10 cm dishes until they were subconfluent and were cotransfected with plasmid DNA (15 μg) and pMD.G (6 μg) by the calcium phosphate transfection method as described previously (55). The medium was changed once after 10 h of transfection to remove the calcium phosphate. The pMD.G expression vector encodes the viral envelope protein VSV-G. The modified 293 cells were previously stably transfected with pol and gag genes (gift of Shigeki Miyamoto, University of Wisconsin Medical School). After additional incubation for 12 h, the medium was removed and K562 cells (10 ml, 3×10^5/ml) were added with polybrene (4 μg/ml) in complete IMEM and incubated for 36 h. The infected cells were separated from adherent 293 cells and then subjected to immunoprecipitation analysis.
Western Blotting—To detect the expression of Myc-tagged wild type NIC-1 and NIC-1 mutants, whole cell lysates were prepared in Nonidet P-40 lysis buffer (50 mM Hepes, pH 7.4, 1 mM EDTA, 150 mM NaCl, 10% glycerol, 1% Nonidet P-40, 2 mM DTT, 0.2 mM phenylmethanesulfonyl fluoride, and 20 μg/ml leupeptin). […] The proteins were transferred to an Immobilon P membrane (Millipore) and detected by immunoblotting with the anti-Myc tag monoclonal antibody 9E10. CBF1 was detected by immunoblotting with anti-CBF1 polyclonal antisera (Lam & Bresnick, unpublished data).

CMV enhancer = experiment: pCMVβgal β-galactosidase reporter, transient transfection of K562 cells; format: cell-based, human
Description: (§1) Transient Transfections—K562 cells (5×10^5) were collected by centrifugation at 240×g for 8 min at 4° C. and resuspended in 4 ml of complete IMEM. Plasmid DNAs (1 μg of reporter and 2 μg of effector) were added to 150 μl of IMEM, incubated with Superfect (4 μl/1 μg DNA; Qiagen) for 10 min at room temperature and then added to cells.
(§2) For each transfection, cells were incubated for 26 h after transfection and then treated with TPA (final concentration: 5 nM) or the vehicle (DMSO). […] Luciferase activity was normalized by the protein content of the lysates, determined by Bradford assay using γ-globulin as a standard.

CSL (CBF1) = experiment: CSL-dependent luciferase reporter, transient transfection of HeLa cells; format: cell-based, human
Excerpt: Plasmids—The pBabe-NIC-1 (pNIC-1) expression vector encoding constitutively active Notch-1 (NIC-1) was described previously (36,37,51). This vector was derived from the pBabe-puro retroviral vector and includes a cDNA sequence encoding amino acids 1759-2556 of human Notch-1 with a Myc tag fused to its carboxyl terminus. Human NIC-1 deletion mutants were generated by PCR using a full-length human Notch-1 expression vector as the template. The Notch-dependent reporter plasmid containing four CBF1 binding sites and an simian virus 40 promoter fused to luciferase (p4×CBF1luc) was described previously (52). The AP-1 reporter plasmid (p1×AP1luc) containing a collagenase promoter fragment (−73/+67) with a single AP-1 binding site in the luciferase reporter vector pGL2-basic (Promega) was described previously (53). The NF-κB reporter plasmid (p3×κBluc) containing three NF-κB binding sites and a minimal promoter fused to luciferase was a kind gift of Dr. Shigeki Miyamoto (University of Wisconsin Medical School). […]
as §2

AP-1 = AP-1 luciferase reporter, transient transfection of K562 cells; format: cell-based, human
Excerpt: Plasmids—The pBabe-NIC-1 (pNIC-1) expression vector encoding constitutively active Notch-1 (NIC-1) was described previously (36,37,51). This vector was derived from the pBabe-puro retroviral vector and includes a cDNA sequence encoding amino acids 1759-2556 of human Notch-1 with a Myc tag fused to its carboxyl terminus. Human NIC-1 deletion mutants were generated by PCR using a full-length human Notch-1 expression vector as the template. The Notch-dependent reporter plasmid containing four CBF1 binding sites and an simian virus 40 promoter fused to luciferase (p4×CBF1luc) was described previously (52). The AP-1 reporter plasmid (p1×AP1luc) containing a collagenase promoter fragment (−73/+67) with a single AP-1 binding site in the luciferase reporter vector pGL2-basic (Promega) was described previously (53). The NF-κB reporter plasmid (p3×κBluc) containing three NF-κB binding sites and a minimal promoter fused to luciferase was a kind gift of Dr. Shigeki Miyamoto (University of Wisconsin Medical School). The pBabe-H-Ras(12V) expression vector encoding constitutively active H-Ras was a kind gift of Dr. Charming Der (University of North Carolina-Chapel Hill). This vector was derived from the pBabe-puro retroviral vector and includes a cDNA encoding H-Ras with a Gly to Val mutation at amino acid 12.
as §1
(§3) For each transfection, cells were incubated for 26 h after transfection and then treated with TPA (final concentration: 5 nM) or the vehicle (DMSO). After incubating for another 12 or 16 h, cells were harvested and assayed for luciferase activity. Luciferase activity was normalized by the protein content of the lysates, determined by Bradford assay using γ-globulin as a standard.

human Aγ globin promoter = experiment: pGL3γLuc reporter, transient transfection of K562 cells; format: cell-based
Description: as §1, §3

**Q.** With “NIC-1: constitutively active Notch-1 intracellular domain, amino acids 1759-2556 of human Notch-1 with carboxyl-terminal Myc tag, expressed from pBabe-NIC-1” as the substance, how does the “recovery of CBF1 in anti-NIC-1 immunoprecipitates” value (CBF1) read?
**A.** coimmunoprecipitated

**Q.** What about the “increase of TPA induced activity of pCMVβgal” value (CMV enhancer; K562, TPA induced) of the same substance?
**A.** ~2 fold

**Q.** What about the “effect on basal activity of pCMVβgal” value (CMV enhancer; K562, basal) of the same substance?
**A.** no effect

**Q.** What about the “activation of CSL-dependent reporter activity” value (CSL (CBF1)) of the same substance?
**A.** strongly activated

**Q.** And the “component of TPA-induced AP-1 reporter activity insensitive to NIC-1” value (AP-1; K562, both AP-1 reporters)?
**A.** ~30%

**Q.** What about the “inhibition of H-Ras(12V)-activated AP-1 reporter activity” value (AP-1; K562, cotransfected pBabe-H-Ras(12V)) of the same substance?
**A.** almost completely inhibited; also recorded: completely inhibits

**Q.** What about the “concentration response curve for AP-1 repression relative to CSL-dependent activation” value (AP-1; K562, increasing amounts of NIC-1 expression vector, TPA 5 nM 12 h) of the same substance?
**A.** slightly shifted to the left

**Q.** And the “repression of TPA-induced AP-1 reporter activity” value (AP-1; K562, p1×AP1luc, TPA 5 nM 12 or 16 h)?
**A.** repressed

**Q.** And the “degree of repression of AP-1 reporter with tandem AP-1 binding sites upstream of a β-globin promoter” value (AP-1; K562, pβ106(AP1)2luc, TPA)?
**A.** comparable to that seen with the MMP1 promoter

**Q.** And the “inhibition of TPA-inducible AP-1 activity” value (AP-1; K562, range of TPA concentrations, 16 h)?
**A.** 70%

**Q.** What about the “effect on TPA-induced activity of pGL3γLuc” value (human Aγ globin promoter; K562, TPA-induced) of the same substance?
**A.** without affecting

**Q.** What about the “increase of basal activity of pGL3γLuc” value (human Aγ globin promoter; K562, basal) of the same substance?
**A.** ~80%
